In US20240158384A1, “CB2 RECEPTOR AGONISTS” (The Board of Trustees of the Leland Stanford Junior …, priority 2020, published 2024):
Values after ≈ are worked out from the molar mass of the structure shown.

What was measured:
[1] = Plasma and brain pharmacokinetics in mice; type: in vivo; conditions: male, C57BL/6, mouse, 10 mg/kg
Description: Plasma and brain concentrations of Compounds 11, 22, 16, and 24 were determined by LC-MS/MS after IV and PO dosing in male C57BL/6 mice at 10 mg/kg. Data are shown in FIGS. 10A-10D for Compounds 11, 22, 16, and 24, respectively.
(§1) Detailed characterization data was collected for Compound 22. Primary assays were carried out according to Examples 2 and 3, while other assays were carried out according to standard methods.

DA response to reward = assay: GRAB-DA fiber photometry during operant task for sucrose reward; type: in vivo, mouse; conditions: injected 30 min before task, n=3, vs vehicle
Description: In a second experiment, the same mice (n=3) were trained to nose poke a dedicated port to gain access to sucrose reward. During the task, GRAB-DA was used to measure DA release in response to reward. After ˜2 weeks of training, the effect of Compound 22 vs. vehicle on the DA response to reward was examined. On the first day, either drug or vehicle was injected followed by waiting 30 min, and then recording DA during the task. The order of drug vs. vehicle was counterbalanced between mice. […] Thus, Compound 22 appears to be capable of modulating both spontaneous and reward-related DA release.

GPR18 = target: T1, GPR18 (Homo sapiens, UniProt Q14330); assay: Off-target activity GPR18 (agonist, antagonist, PAM modes); type: cell-based
T1 sequence (Q14330 1-331): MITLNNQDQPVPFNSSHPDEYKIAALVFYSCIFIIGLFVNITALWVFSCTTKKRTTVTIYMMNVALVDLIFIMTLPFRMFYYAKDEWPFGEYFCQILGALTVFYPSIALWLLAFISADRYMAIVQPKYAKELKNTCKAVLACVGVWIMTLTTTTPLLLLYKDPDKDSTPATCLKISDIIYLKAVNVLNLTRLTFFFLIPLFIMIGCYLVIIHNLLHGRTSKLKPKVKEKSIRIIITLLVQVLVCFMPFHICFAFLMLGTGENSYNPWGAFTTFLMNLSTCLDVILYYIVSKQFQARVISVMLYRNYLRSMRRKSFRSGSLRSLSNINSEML
Description: as §1

[2] = tested on: spontaneous DA transients in NAc; assay: GRAB-DA fiber photometry, spontaneous DA transients; type: in vivo, mouse
Description: For this study, a probe was implanted into the nucleus accumbens (NAc) (FIG. 11A). Following baseline measurements, mice were dosed with vehicle or Compound 22 (10 mg/kg, i.p) followed 40 min later by a single dose of AMPH (2 mg/kg, i.p.). Samples were collected for 2 hr post-dosing. Extracellular dopamine (DA) levels in the dialysate were quantified by HPLC with electrochemical detection (FIG. 11B). […] Compound 22 modulates both spontaneous and reward-related DA release. To confirm these findings in parallel experiments, GPCR-activation based-DA (GRAB-DA) was used, which is a human D2R-GFP chimera sensor that produces fluorescence changes reliably and with sub-second kinetics in response to extracellular DA concentration changes in behaving animals (Sun et al. Cell 2018; 174(2):481-96.e19). Mice were injected with an adeno-associated virus (AAV) carrying GRAB-DA into the (NAc) (FIG. 11C) and allowed to recover for −2 weeks before fiber photometry experiments were performed. In the first pilot experiment, baseline DA release were recorded for 5 min before mice (n=3) were injected with either Compound 22 or vehicle and then recording was continued for 45 min. The rate of spontaneous DA transients was compared in the pre-injection (0-5 min) vs post-injection (35-50 min) periods; there was a significant time x drug interaction: F(1,4)=11.91, P=0.026.

Caco-2 = assay: In vitro permeability Caco-2; type: in vitro ADME
Description: as §1

hERG = hERG (Homo sapiens, UniProt Q12809); assay: hERG activity
Description: as §1

Aqueous solubility = type: physicochemical; conditions: aqueous medium (not further specified)
Description: as §1

Microsomal stability = type: in vitro ADME
Description: as §1

hERG, sequence (Q12809 whole entry): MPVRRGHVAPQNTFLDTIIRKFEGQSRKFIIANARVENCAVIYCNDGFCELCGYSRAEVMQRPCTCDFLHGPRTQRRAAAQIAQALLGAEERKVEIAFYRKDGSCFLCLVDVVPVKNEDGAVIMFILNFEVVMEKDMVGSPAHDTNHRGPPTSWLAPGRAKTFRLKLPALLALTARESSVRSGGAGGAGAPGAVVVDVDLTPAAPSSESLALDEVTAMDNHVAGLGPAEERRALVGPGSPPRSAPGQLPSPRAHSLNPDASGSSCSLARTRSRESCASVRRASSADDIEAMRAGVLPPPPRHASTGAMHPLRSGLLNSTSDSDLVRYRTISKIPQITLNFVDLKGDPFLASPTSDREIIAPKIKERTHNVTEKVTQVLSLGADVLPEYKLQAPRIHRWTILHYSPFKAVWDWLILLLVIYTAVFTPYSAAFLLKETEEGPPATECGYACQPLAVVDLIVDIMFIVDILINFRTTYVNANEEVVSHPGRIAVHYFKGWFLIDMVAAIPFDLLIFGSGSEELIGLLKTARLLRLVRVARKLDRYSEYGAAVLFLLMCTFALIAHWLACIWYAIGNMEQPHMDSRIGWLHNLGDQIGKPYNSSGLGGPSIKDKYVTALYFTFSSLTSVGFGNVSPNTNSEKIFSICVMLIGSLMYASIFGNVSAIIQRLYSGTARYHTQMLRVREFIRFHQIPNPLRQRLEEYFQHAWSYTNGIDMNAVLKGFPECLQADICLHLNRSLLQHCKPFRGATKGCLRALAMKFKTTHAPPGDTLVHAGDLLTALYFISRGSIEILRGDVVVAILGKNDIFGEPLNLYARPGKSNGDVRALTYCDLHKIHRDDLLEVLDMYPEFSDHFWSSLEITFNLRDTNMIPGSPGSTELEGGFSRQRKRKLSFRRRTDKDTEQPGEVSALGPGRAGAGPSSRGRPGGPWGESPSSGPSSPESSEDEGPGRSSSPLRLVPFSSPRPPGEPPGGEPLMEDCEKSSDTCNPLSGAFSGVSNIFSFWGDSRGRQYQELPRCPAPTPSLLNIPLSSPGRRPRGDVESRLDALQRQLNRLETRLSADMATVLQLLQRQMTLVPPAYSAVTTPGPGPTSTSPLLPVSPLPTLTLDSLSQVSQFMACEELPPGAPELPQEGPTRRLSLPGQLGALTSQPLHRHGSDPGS

CC(C)(CO)c1cc(NC(=O)N2CCCN2c2ccc(C(F)(F)F)cc2)no1 [Compound 22, N-(5-(1-hydroxy-2-methylpropan-2-yl)isoxazol-3-yl)-2-(4-(trifluoromethyl)phenyl)pyrazolidine-1-carboxamide]
Kp at 24 h ([1]; in vivo, Via oral administration, 3 mice, at 24 h, read-out: Brain to plasma ratio): 0.97 | bioavailability ([1]; plasma, Oral bioavailability): 100% | Ability to perform task and maximum reward-induced DA release (DA response to reward): not a significant effect on the ability of mice to perform this task or the maximum reward-induced DA release | DA response curve to sucrose reward (DA response to reward): appeared to widen the DA response curve | EC50 (GPR18): > 10 µM | IC50 (GPR18): > 10 µM | Shape of the spontaneous DA transients ([2]; before and after injection): widening the curve | Rate of spontaneous DA transients ([2]; pre-injection (0-5 min) vs post-injection (35-50 min), n=3): reduced the rate of spontaneous transients | In vitro permeability (Caco-2): High | IC50 (hERG): > 10 µM | solubility (Aqueous solubility): 17.4 µg/mL (≈ 43.6 µM) | Microsomal stability, clearance class (Microsomal stability): Low clearance | half-life (Microsomal stability; microsomes, read-out: Microsomal stability t ½): 2 h
